# Results: patent US8466176B2 (priority 2008, dated 2013)
# Read-outs that look alike come from different tables or passages of the source.
# What was measured:
# [1] = Measurement of logP values according EEC directive 79/831 Annex V.A8 by HPLC on reversed phase columns; assay type: physicochemical; conditions: for chromatographic logP: reversed phase HPLC columns, read-out: log p
# [2] = method [c]: LC-MS at pH 7.8, 0.001 molar ammonium hydrogen carbonate in water, linear gradient 10% to 95% acetonitrile
# [3] = logP by HPLC on reversed phase columns, method [a], pH 2.3 with 0.1% phosphoric acid and acetonitrile; assay type: physicochemical; conditions: reversed phase HPLC columns; method [a]: pH 2.3, 0.1% phosphoric acid and acetonitrile as eluent; EEC directive 79/831 Annex V.A8, reversed phase HPLC; read-out: log p
# Phytophthora infestans = assay: whole plant or invertebrate; assay type: in vivo; conditions: in Solanum lycopersicum, 168 h, read-out: efficacy
# [4] = logP(HCOOH) reported with HPLC/MS
# [5] = no method mark printed in the cell
# [6] = HCOOH (formic acid), logP(HCOOH), HPLC/MS
# [7] = method [a]: pH 2.3 with 0.1% phosphoric acid and acetonitrile as eluent
smiles,measurement,setting,value
"Cn1nnnc1C(=NOCc1cccc(Br)n1)c1ccccc1 (single isomer, unassigned) [Example 306]",log p,[1]; [5],3.19
"Cn1nnnc1C(=NOCc1cccc(Br)n1)c1ccccc1 (single isomer, unassigned) [Example 307]",log p,[1]; [5],3.00
COCC#Cc1cccc(CON=C(c2ccccc2)c2nnnn2C)n1 [Example 24],log p,[2],3.04^[c]
"Cn1nnnc1C(=NOCc1csc(C#CC2CC2)n1)c1ccccc1 [Example 70, N-{[2-(cyclopropylethynyl)-1,3-thiazol-4-yl]methoxy}-1-(1-methyl-1H-tetrazol-5-yl)-1-phenylmethanimine]",chromatographic logP,[3],3.58
same,pest or weed control at 500 ppm,Phytophthora infestans,≥ 70%
same,chromatographic logP,[4]; [6],3.58
"Cn1nnnc1C(=NOCc1cccc(/C=C/C2CCCCC2)n1)c1ccccc1 [Example 93, N-({6-[(E)-2-cyclohexylvinyl]pyridin-2-yl}methoxy)-1-(1-methyl-1H-tetrazol-5-yl)-1-phenylmethanimine]",chromatographic logP,[3],5.05
same,pest or weed control at 500 ppm,Phytophthora infestans,≥ 70%
same,chromatographic logP,"[4]; HPLC, logP(HCOOH), HPLC/MS",5.05
"COc1ccc(CON=C(c2ccccc2)c2nnnn2C)nc1C#CC1CC1 [Example 126, N-{[6-(cyclopropylethynyl)-5-methoxypyridin-2-yl]methoxy}-1-(1-methyl-1H-tetrazol-5-yl)-1-phenylmethanimine]",pest or weed control at 500 ppm,Phytophthora infestans,≥ 70%
same,chromatographic logP,[4]; [6],3.23
same,chromatographic logP,"[4]; reversed phase HPLC column, pH 2.7, log p, method [b]: LC-MS at pH 2.7, 0.1% formic acid in water and acetonitrile, linear gradient 10% to 95% acetonitrile",3.23
"Cn1nnnc1C(=NOCc1cccc(C2OCCO2)n1)c1ccccc1 [Example 160, N-{[6-(1,3-dioxolan-2-yl)pyridin-2-yl]methoxy}-1-(1-methyl-1H-tetrazol-5-yl)-1-phenylmethanimine]",pest or weed control at 500 ppm,Phytophthora infestans,≥ 70%
same,chromatographic logP,"[4]; HPLC, logP(HCOOH), HPLC/MS",2.47
same,chromatographic logP,"[4]; reversed phase HPLC column, pH 7.8, log p, method [c]: LC-MS, pH 7.8 with 0.001 molar ammonium hydrogen carbonate solution in water, linear gradient 10% to 95% acetonitrile",2.47
"Cn1nnnc1C(=NOCc1cccc(C=NOC2CCCCC2)n1)c1ccccc1 [Example 274, N-[(6-{[(cyclohexyloxy)imino]methyl}pyridin-2-yl)methoxy]-1-(1-methyl-1H-tetrazol-5-yl)-1-phenylmethanimine]",chromatographic logP,[1]; [7],4.89
same,chromatographic logP,"[4]; logP(HCOOH), HPLC/MS",4.89
"Cn1nnnc1C(=NOCc1cccc(CO)n1)c1ccccc1 [Example 275, {6-[({[(1-methyl-1H-tetrazol-5-yl)(phenyl)methylene]amino}oxy)methyl]pyridin-2-yl}methanol]",chromatographic logP,[1]; [7],1.76
same,chromatographic logP,[4]; [6],1.76
CCCCC1CC(c2cccc(CON=C(c3ccccc3)c3nnnn3C)n2)=NO1 (centres unmarked) [Example 276],log p,[1]; [7],4.26^[a]
Cn1nnnc1C(=NOCc1csc(/C=C/C2CC2)n1)c1ccccc1 [Example 277],log p,[1]; [7],3.58^[a]
"CCCC/C=C/c1nc(CON=C(c2ccccc2)c2nnnn2C)cs1 [Example 278, N-({2-[(1E)-hex-1-en-1-yl]-1,3-thiazol-4-yl}methoxy)-1-(1-methyl-1H-tetrazol-5-yl)-1-phenylmethanimine]",chromatographic logP,[1]; [7],4.56
same,chromatographic logP,"[4]; HPLC, logP(HCOOH), HPLC/MS",4.56
Cn1nnnc1C(=NOCc1csc(/C=C/CC2CCCC2)n1)c1ccccc1 [Example 279],log p,[1]; [7],5.14^[a]
Cn1nnnc1C(=NOCc1cccc(NCC2CCCC2)n1)c1ccccc1 [Example 288],log p,[1]; [7],2.3^[a]
Cn1nnnc1C(=NOCc1cccc(NCC2CCCCC2)n1)c1ccccc1 [Example 289],log p,[1]; [7],2.43^[a]
